Results published in article PMC12891993, “Bio-orthogonal chemistry-based strategy to Turn-OFF CRISPR-Cas9 activity in solution and live cells” (NAR Molecular Medicine, 2026).
Residues, ends and D or L forms follow the SMILES beside them. *: point of attachment. X1 = O=C(COC1CC/C=C/CCC1)*

Columns and labels:
Type in all cases: cell-based
HEK293 cells = experiment: Assessment of cell permeability of TCO-modified CRISPR suppressors with OG-Tz fluorescent probe; conditions: suppressor 30 μM 3 h, then OG-Tz 50 μM 2 h; for cellular fluorescence in the Oregon Green channel: confocal microscopy; for cell permeability: microscopy, confirmed by flow cytometry
Method: The studies were carried out using the previously reported OG-Tz fluorescent probe. The chemical structure of OG-Tz is shown in Supplementary Fig. S7. OG-Tz was synthesized using the procedure reported by Devaraj and co-workers. The HEK293 cells were cultured in DMEM, containing 10% FBS and 1X Penicillin/Streptomycin, at 37°C, 5% CO2, and 95% humidity. The cells were seeded at a concentration of 1 × 10^5 cells per well in a six-well plate 24 h prior to the experiment. The cells were treated with the TCO-modified CRISPR suppressors (30 μM) for 3 h. Then, the media was replaced, and the cells were treated with OG-Tz (50 μM) for 2h. Afterwards, the cells were treated with trypsin for 5 min, collected by centrifugation at 1000 RPM, and suspended in PBS (1 mL). GFP expression was analyzed by flow cytometry. Data from 10^6 cells were acquired using a FACS Aria III cell sorter equipped with a 488 nm/blue coherent sapphire solid-state laser, 20 mW (BD Biosciences, San Jose, CA, USA). Data analyses were carried out using FlowJo software (Ashland, OR, USA), according to the manufacturer’s instructions. Parameters, such as MFI and the percentages of specific populations, were quantified by histogram analysis.
HEK293 cells were grown to ∼70% confluence in 35 mm MatTek glass bottom dishes in DMEM supplemented with 10% […], penicillin, and streptomycin. The cells were treated with AAA-PNA-TCO, TTT-PNA-TCO, TCO-CPP-RRWQW, or TCO-CPP-RLRWR (30 μM) for 3 h. Afterwards, the cells were treated with OG-Tz (50 μM) for 2 h. Hoechst 33 258 dye was used for nuclear staining. Cellular fluorescence was analyzed using confocal microscopy. Microscopy experiments were carried out using a Zeiss LSM980 confocal microscope.

[1] = tested on: GFP gene in GFP-expressing HEK293 cells; experiment: CRISPR-Cas9 experiments in GFP-expressing HEK293 cells, flow cytometry; conditions: then suppressor 10 μM 24 h, 48 h growth, duplicate; for inactivation of sgRNA3-(U4Tz1) inside the cells (MFI of GFP): Cas9 mRNA + sgRNA3-(U4Tz1) 48 h; for inactivation of sgRNA3-(U4Tz2) inside the cells (MFI of GFP): Cas9 mRNA + sgRNA3-(U4Tz2) 48 h
Method: CRISPR-Cas9 experiments were carried out following the procedure reported by Yin et al. The GFP-expressing HEK293 cells were purchased from GenTarget (cat.# SC001) and cultured in DMEM, containing 10% FBS and 1X Penicillin/Streptomycin, at 37°C, 5% CO2, and 95% humidity. The cells were seeded at a concentration of 1 × 10^5 cells per well in a six-well plate 24 h prior to the experiment. The cells were transfected with Cas9 mRNA (500 ng, Thermo Fisher Scientific), GFP-targeting sgRNAs (30 nM) using lipofectamine (1.5 μL) (Invitrogen™ LMRNA003) for 72 h in Opti-MEM reduced serum media. After 72 h, Opti-MEM was replaced with fresh DMEM, and the cells were grown for an additional 48 h. The cells were treated with trypsin for 5 min, collected by centrifugation at 1000 RPM, and suspended in PBS (1 mL). GFP expression was analyzed by flow cytometry. Data from 10^6 cells were acquired using a FACS Aria III cell sorter equipped with a 488 nm/blue coherent sapphire solid-state laser, 20 mW (BD Biosciences, San Jose, CA, USA). Data analyses were carried out using FlowJo software (Ashland, OR, USA), according to the manufacturer’s instructions. Parameters, such as MFI and the percentages of specific populations, were quantified by histogram analysis.
Ability of TCO-modified CRISPR suppressors to control nuclease activity was examined as follows: GFP-expressing HEK239 cells were co-transfected with Cas9 mRNA (500 ng, Thermo Fisher Scientific), GFP-targeting sgRNAs (30 nM) using lipofectamine (1.5 μL) (Invitrogen™ LMRNA003) for 48 h. Then, AAA-PNA-TCO, TTT-PNA-TCO, TCO-CPP-RRWQW, and TCO-CPP-RLRWR (10 μM) were added to the media. After 24 h of treatment with the TCO-modified CRISPR suppressors, the media were replaced with fresh DMEM, and the cells were allowed to grow for an additional 48 h. The cells were treated with trypsin for 5 min, collected by centrifugation at 1000 RPM, and suspended in PBS (1 mL). GFP expression was analyzed by flow cytometry. Data from 10^6 cells were acquired using a FACS Aria III cell sorter equipped with a 488 nm/blue coherent sapphire solid-state laser, 20 mW (BD Biosciences, San Jose, CA, USA). Data analyses were carried out using FlowJo software (Ashland, OR, USA), according to the manufacturer’s instructions. Parameters, such as MFI and the percentages of specific populations, were quantified by histogram analysis.

VEGFA in HEK293T cells = experiment: Western blot analysis of CRISPR-Cas9 experiments targeting VEGFA; conditions: Cas9 mRNA + sgRNA4-(U4Tz1) or sgRNA4-(U4Tz2), suppressor 10 μM added after 48 h of transfection
Method: Total protein lysate was harvested in RIPA buffer, and proteins separated by 10% SDS-PAGE were transferred to a PVDF membrane by using High MW protocol on Biorad Turbo wet transfer. Following transfer, membranes were blocked in 5% milk in PBST for 1 h at room temperature, washed three times in PBS with 0.1% (w/v) Tween 20 (PBS/T) for 10 min each and placed in primary antibody overnight at 4 °C. Primary antibody was rabbit VEGFA polyclonal antibody (1:2000 dilution, Cat.# 19003–1-AP, Proteintech) and α-tubulin monoclonal antibody (1:20 000 dilution, Cat.# 666031–1-Ig, Proteintech) in 5% BSA in PBS/T. Following overnight incubation, membranes were washed three times in PBS/T for 10 min each. Then membranes were incubated in a 1:10 000 dilution of goat anti-rabbit secondary (Jackson), goat-anti-mouse secondary in 5% milk, and PBS/T. Membranes were washed a final 3 times in PBS/T for 10 min each prior to being imaged on the BioRad ChemiDoc by using Thermo Scientific SuperSignal West Pico PLUS Chemiluminescent Substrate (BioRad, Cat.# 34 577).
To assess the new constructs, HEK239T cells were co-transfected with the unmodified sgRNA4, sgRNA4-(U4Tz1), or sgRNA4-(U4Tz2) and commercially available mRNA that encodes the Cas9 gene for 72 h. […] VEGFA expression was once again analyzed by Western blot.

Compound | cellular fluorescence in the Oregon Green channel (HEK293 cells) | cell permeability (HEK293 cells) | inactivation of sgRNA3-(U4Tz1) inside the cells (MFI of GFP) [1] | inactivation of sgRNA3-(U4Tz2) inside the cells (MFI of GFP) [1] | VEGFA expression after addition of suppressor (VEGFA in HEK293T cells)
CC(C)C[C@H](NC(=O)[C@H](CCCNC(=N)N)NC(=O)COC1CC/C=C/CCC1)C(=O)N[C@@H](CCCNC(=N)N)C(=O)N[C@@H](Cc1c[nH]c2ccccc12)C(=O)N[C@@H](CCCNC(=N)N)C(=O)O (stereo partly shown) [TCO-CPP-RLRWR] (X1-RLRWR-OH) | strongest fluorescence | good cell permeability | Analogous results | Analogous results | higher VEGFA expression
N=C(N)NCCC[C@H](NC(=O)COC1CC/C=C/CCC1)C(=O)N[C@@H](CCCNC(=N)N)C(=O)N[C@@H](Cc1c[nH]c2ccccc12)C(=O)N[C@@H](CCC(N)=O)C(=O)N[C@@H](Cc1c[nH]c2ccccc12)C(=O)O (stereo partly shown) [TCO-CPP-RRWQW] (X1-RRWQW-OH) | strongest fluorescence | good cell permeability | able to inactivate | able to inactivate | higher VEGFA expression
